Experimental data as given in PubChem BioAssay AID1963433 (Molecular Pharmacology Branch, DTP, NCI, 2024).

Test system: 772245-204-R-J1-PDC complex spheroid growth
Assay: Anticancer human tumor 772245-204-R-J1-PDC patient-derived rhabdomyosarcoma cell line growth inhibition [Asc]
Settings: for IC50: curve of first compound; for viability, T/C: stronger effect = lower value
Procedure, shortened: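 Concentration series start at each agent's clinical Cmax, or at 10 microM when none is established, and drop in half-log steps; agents are applied alone or together to complex spheroids built with HUVEC and hMSC.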
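Also: compound exposure lasted seven days.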
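For viability, T/C in this document: 100% = DMSO vehicle control viability.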

`C#Cc1c(F)ccc2cc(O)cc(-c3ncc4c(N5CC6CCC(C5)N6)nc(OCC56CCCN5CC(F)C6)nc4c3F)c12` (stereo not given) + Cc1c(S(C)(=O)=O)c(-c2cc(F)cc(N3CCN(c4ccc(NS(=O)(=O)c5ccc(NC(CCN6CCC(C(=O)OCCCP(=O)(O)O)CC6)CSc6ccccc6)c(S(=O)(=O)C(F)(F)F)c5)cc4)CC3)c2)c(-c2ccc(Cl)cc2)n1C(C)C showed an IC50 (second compound 0.1 µM) of 9.71 µM, an IC50 (second compound 0.316 µM) of 2.03 µM and an IC50 (second compound 1 µM) of 3.74 µM. The IC50 (second compound 3.16 µM) was less than 0.0316 µM, the IC50 (second compound 10 µM) was 1.03 µM and the viability, T/C (second compound 0.1 µM, first compound 0.0316 µM) was 72.8%. For the same compound, the viability, T/C (second compound 0.1 µM, first compound 0.1 µM) was 93.2%, the viability, T/C (second compound 0.1 µM, first compound 0.316 µM) was 85.6% and the viability, T/C (second compound 0.1 µM, first compound 1 µM) was 71.6%. The viability, T/C (second compound 0.1 µM, first compound 3.16 µM) was 72.7%, the viability, T/C (second compound 0.1 µM, first compound 10 µM) was 49% and the viability, T/C (second compound 0.316 µM, first compound 0.0316 µM) was 60.4%. For the same compound, the viability, T/C (second compound 0.316 µM, first compound 0.1 µM) was 66.2%, the viability, T/C (second compound 0.316 µM, first compound 0.316 µM) was 62.3% and the viability, T/C (second compound 0.316 µM, first compound 1 µM) was 56%. The viability, T/C (second compound 0.316 µM, first compound 3.16 µM) was 46.3%, the viability, T/C (second compound 0.316 µM, first compound 10 µM) was 38.2% and the viability, T/C (second compound 1 µM, first compound 0.0316 µM) was 49.8%. It also gave a viability, T/C (second compound 1 µM, first compound 0.1 µM) of 55.4%, a viability, T/C (second compound 1 µM, first compound 0.316 µM) of 51.5% and a viability, T/C (second compound 1 µM, first compound 1 µM) of 56.8%. It also gave a viability, T/C (second compound 1 µM, first compound 3.16 µM) of 54.1%, a viability, T/C (second compound 1 µM, first compound 10 µM) of 29.7% and a viability, T/C (second compound 3.16 µM, first compound 0.0316 µM) of 49.8%. The viability, T/C (second compound 3.16 µM, first compound 0.1 µM) was 46.7%, the viability, T/C (second compound 3.16 µM, first compound 0.316 µM) was 47.1% and the viability, T/C (second compound 3.16 µM, first compound 1 µM) was 37%. For the same compound, the viability, T/C (second compound 3.16 µM, first compound 3.16 µM) was 30.7%, the viability, T/C (second compound 3.16 µM, first compound 10 µM) was 13.8% and the viability, T/C (second compound 10 µM, first compound 0.0316 µM) was 44%. For the same compound, the viability, T/C (second compound 10 µM, first compound 0.1 µM) was 55.5%, the viability, T/C (second compound 10 µM, first compound 0.316 µM) was 44% and the viability, T/C (second compound 10 µM, first compound 1 µM) was 58.3%. For the same compound, the viability, T/C (second compound 10 µM, first compound 3.16 µM) was 34% and the viability, T/C (second compound 10 µM, first compound 10 µM) was 18.5%.
Compound `Cc1nc(N2CCC3(CC2)COC(C)C3N)c(CO)nc1Sc1ccnc(N)c1Cl` (stereo not given) + Cc1c(S(C)(=O)=O)c(-c2cc(F)cc(N3CCN(c4ccc(NS(=O)(=O)c5ccc(NC(CCN6CCC(C(=O)OCCCP(=O)(O)O)CC6)CSc6ccccc6)c(S(=O)(=O)C(F)(F)F)c5)cc4)CC3)c2)c(-c2ccc(Cl)cc2)n1C(C)C has an IC50 (second compound 0.1 µM) of 2.23 µM, an IC50 (second compound 0.316 µM) of 0.644 µM and an IC50 (second compound 1 µM) of 0.369 µM. It also gave an IC50 (second compound 3.16 µM) of 0.0862 µM, an IC50 (second compound 10 µM) of 0.444 µM and a viability, T/C (second compound 0.1 µM, first compound 0.00949 µM) of 90.3%. The viability, T/C (second compound 0.1 µM, first compound 0.03 µM) was 90.2%, the viability, T/C (second compound 0.1 µM, first compound 0.0949 µM) was 85% and the viability, T/C (second compound 0.1 µM, first compound 0.3 µM) was 71%. The viability, T/C (second compound 0.1 µM, first compound 0.949 µM) was 63.7%, the viability, T/C (second compound 0.1 µM, first compound 3 µM) was 45.4% and the viability, T/C (second compound 0.316 µM, first compound 0.00949 µM) was 72.6%. It also gave a viability, T/C (second compound 0.316 µM, first compound 0.03 µM) of 76.3%, a viability, T/C (second compound 0.316 µM, first compound 0.0949 µM) of 70.9% and a viability, T/C (second compound 0.316 µM, first compound 0.3 µM) of 57%. It also gave a viability, T/C (second compound 0.316 µM, first compound 0.949 µM) of 46.8%, a viability, T/C (second compound 0.316 µM, first compound 3 µM) of 31.2% and a viability, T/C (second compound 1 µM, first compound 0.00949 µM) of 47.4%. The viability, T/C (second compound 1 µM, first compound 0.03 µM) was 63.7%, the viability, T/C (second compound 1 µM, first compound 0.0949 µM) was 68.6% and the viability, T/C (second compound 1 µM, first compound 0.3 µM) was 47.9%. The viability, T/C (second compound 1 µM, first compound 0.949 µM) was 38.3%, the viability, T/C (second compound 1 µM, first compound 3 µM) was 20.3% and the viability, T/C (second compound 3.16 µM, first compound 0.00949 µM) was 60.9%. The viability, T/C (second compound 3.16 µM, first compound 0.03 µM) was 49.7%, the viability, T/C (second compound 3.16 µM, first compound 0.0949 µM) was 54.9% and the viability, T/C (second compound 3.16 µM, first compound 0.3 µM) was 37.9%. The viability, T/C (second compound 3.16 µM, first compound 0.949 µM) was 32.4%, the viability, T/C (second compound 3.16 µM, first compound 3 µM) was 14.5% and the viability, T/C (second compound 10 µM, first compound 0.00949 µM) was 52.1%. The viability, T/C (second compound 10 µM, first compound 0.03 µM) was 61.2%, the viability, T/C (second compound 10 µM, first compound 0.0949 µM) was 60.9% and the viability, T/C (second compound 10 µM, first compound 0.3 µM) was 55.4%. The viability, T/C (second compound 10 µM, first compound 0.949 µM) was 38.7% and the viability, T/C (second compound 10 µM, first compound 3 µM) was 16.4%.
